Data published in patent EP3892734B1, “SCREENING METHODS AND THERAPEUTIC APPLICATIONS BASED ON BACTERIAL MOTILITY INHIBITION” (Ludwig-Maximilians-Universität München, priority 2020, dated 2021).
≈ marks a conversion by molar mass, not a printed value. Where “and” joins values, the source holds several entries; their conditions need not be identical. Identical values can stand only once. Like-named read-outs stand apart in the source and are kept apart here.

Columns and labels:
flagellin protein FlaA = test: Western immunoblot of flagellin FlaA in bacterial fractions; assay type: cell-based, H. pylori; settings: Western blot, soluble and surface-associated fractions, time point T2
Excerpt: • Fig. 1: Developing and establishing a screening system by primary luciferase-based reporter screen for flagellar expression and biosynthesis of H. pylori in multi-well plates and identification of active small compounds by the screen. A) Results of luciferase flagellar reporter screen for one exemplary library of more than 1200 compounds; each dot represents one compound result. […] Inhibitory as well as enhancing activities of the compounds were observed. Yellow markings depict the borders of the Z-factor, corresponding to the three-fold standard error of the positive (non-inhibited) controls. […] Tracking assays with H. pylori were performed in liquid medium (RPMI1640 with 3% horse serum) and movies recorded in a CELL-R live imaging system (Olympus, see methods). A) Stops/reversals during the swimming runs of the bacteria as a measure of intact taxis and directional motility and curvilinear velocity (CLV) were quantitated as described in (Behrens et al., 2016). […] Two different time points of an H. pylori growth curve in liquid BHI medium (3% yeast extract, 5% horse serum), T1 (early exponential) T2 (late exponential growth) were monitored for differences in protein expression in the presence (+) or absence of Active 2 compound. […] Highquality sequences obtained from cagL positive PCRs in the absence of positive culture are boxed; respective Sanger sequence reads are shown in B). […]

[1] = system: H. pylori flaA-luciferase reporter strain N6; test: microbe, parasite or virus in culture; assay type: cell-based, Helicobacter pylori
Excerpt: The H. pylori flaA promoter was fused with a luciferase operon (luxAB) from Vibrio harveyi in a H. pylori suicide plasmid (Niehus, Ye, Suerbaum, & Josenhans, 2002). The flaA reporter fusion was recombined into the H. pylori chromosome and the resulting strain tested to be strongly luminescence positive. The reporter strain (N6 flaA-lux4B) activated luminescence to about 40,000 to 60,000 counts per second using luciferase substrate at an OD600 of 0.8 (mid-log phase) in liquid culture. The negative control value of a non-reporter strain or reporter strain without luminescence substrate was close to zero. […] The Z-Factor (Zhang et al., 1999) determined for the assay with various bacterial inhibitors measured in quadruplicates or triplicates was routinely between 0.6 and 0.7, with a confidence interval of 95%.
H. pylori luminescence reporter strains were passaged on blood agar plates less than 22 hours prior to the start of the experiment. The passage number for these assays was not higher than five to preserve the strain's properties and genetic stability. Luciferase reaction buffer was prepared as follows: 50 mM disodium phosphate (Na2HPO4) and 2% BSA were dissolved in HPLC water, filter sterilized, aliquoted and frozen at - 20°C.
Bacteria were harvested in brain-heart infusion medium (BHI, 3% yeast extract with 5% horse serum added) and adjusted to an OD600 of 0.8 at room temperature. 50 µl of the bacterial suspension were added per well of a 96 well plate (non-binding, Greiner Bio-One 655901). 2 µl of each of the test compounds (provided as a 10 mM DMSO solution) were added to the sample wells. The same amount of pure, diluted DMSO was added to the control wells for a concentration of a maximum of 4% DMSO per well, since higher concentrations will interfere with metabolic functions of H. pylori and cause false negative results. The microwell plate was incubated inside a sterile sealed PM Gas Bag (BIOLOG #3032) together with a CampyGen Compact pack (Oxoid) to generate microaerobic conditions at 37°C and with shaking at 175 rpm for 4 h.
Shortly before taking the measurement, the luciferase substrate was prepared by diluting the luminescence substrate decanal (10% stock, Sigma Aldrich) at a 1 :2,000 dilution in luciferase reaction buffer. 60 µl of the substrate were added per well of a white 96 microwell plate (Thermo Scientific #236105) without the lid.
For the final luciferase measurement, 10 µl of bacterial solution were transferred with the epMotion 96 (Eppendorf) simultaneously to the wells containing the luciferase substrate and incubated on a microwell plate shaker for 10 s to lyse the bacteria. The measurements were recorded with a Perkin Elmer Victor 3/WNallac 1420 plate reader (luminometry, measurement time: 0.5 sec) and integrated to counts per sec. For the background measurement, 10 µl sterile medium containing 4% DMSO was added to the wells. For each measurement, at least four luciferase reporter positive control wells (without inhibitory compound) and four negative control wells (background without bacteria) were run on the same day and under the same assay conditions in parallel.

## Cn1c(CSC(=N)N)c(Cl)c(=O)n1-c1ccccc1 [Active 2]
Flagellin protein FlaA
  amount of major flagellin FlaA: significant reduction of main flagellin FlaA at time point T2
Flagellin protein FlaA; listed as Active 2/BL2
  amount of major flagellin FlaA: reduced the amounts of the major flagellin, FlaA
[1]; H. pylori flaA-luciferase reporter strain N6, Table 6
  IC50: 2.75 µg/mL (≈ 9.27 µM)
[1]; H. pylori screen
  Luciferase assay (% of control): 2,6 % of control
[1]; Helicobacter pylori, H. pylori flaA-luciferase reporter strain N6, Table 6
  IC50: < 4.5 µg/mL
[1]; Helicobacter pylori, read-out: IC50 (luciferase assay), luciferase flagellar reporter assay, Table 3
  IC50: 2.74 µg/mL and 8 µM
[1]; result in words
  inhibitory activity in luciferase reporter assay: strong inhibitor in the primary anti-flagellar reporter screen
